# From US20210045385A1, “PYRIDAZINONE-SUBSTITUTED KETOXIMES AS HERBICIDES” (FMC Corporation, priority 2018, published 2021)
# Tests used:
# Format in all cases: in vivo
# [1] = test system: barnyardgrass (Echinochloa crus-galli); assay: Test A preemergence, visual plant response rating; conditions: for Barnyardgrass plant response rating: 125 g ai/ha, preemergence, 0 to 100 scale, 0 no effect, 100 complete control; for Barnyardgrass plant response rating (0 to 100 scale): 500 g ai/ha Preemergence, approx. 10 days
# Summary of the method: (§1)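 Preemergence: seeds in loam/sand blend given directed soil spray of compound in non-phytotoxic solvent with surfactant. Postemergence: plants 2–10 cm, one- to two-leaf stage, sprayed with same formulation. Visual injury rated vs untreated controls after ~10 days in greenhouse, 0 (no effect) to 100 (complete control).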
# [2] = test system: kochia (Kochia scoparia); assay: Test A preemergence, visual plant response rating; conditions: for Kochia plant response rating: 125 g ai/ha, preemergence, 0 to 100 scale, 0 no effect, 100 complete control; for Kochia plant response rating (0 to 100 scale): 500 g ai/ha Preemergence, approx. 10 days
# Summary of the method: as §1
# [3] = test system: foxtail, giant (giant foxtail, Setaria faberii); assay: Test A preemergence, visual plant response rating; conditions: for Foxtail, Giant plant response rating: 125 g ai/ha, preemergence, 0 to 100 scale, 0 no effect, 100 complete control; for Foxtail, Giant plant response rating (0 to 100 scale): 500 g ai/ha Preemergence, approx. 10 days
# Summary of the method: as §1
# [4] = test system: pigweed (Amaranthus retroflexus); assay: Test A preemergence, visual plant response rating; conditions: for Pigweed plant response rating: 125 g ai/ha, preemergence, 0 to 100 scale, 0 no effect, 100 complete control; for Pigweed plant response rating (0 to 100 scale): 500 g ai/ha Preemergence, approx. 10 days
# Summary of the method: as §1
# [5] = test system: ragweed (common ragweed, Ambrosia elatior); assay: Test A preemergence, visual plant response rating; conditions: for Ragweed plant response rating (0 to 100 scale): 500 g ai/ha Preemergence, approx. 10 days
# Summary of the method: as §1
# [6] = test system: Italian ryegrass (Lolium multiflorum); assay: Test A preemergence, visual plant response rating; conditions: for Ryegrass, Italian plant response rating: 125 g ai/ha, preemergence, 0 to 100 scale, 0 no effect, 100 complete control; for Ryegrass, Italian plant response rating (0 to 100 scale): 500 g ai/ha Preemergence, approx. 10 days
# Summary of the method: as §1
# [7] = test system: barnyardgrass (Echinochloa crus-galli); assay: Test A postemergence, visual plant response rating; conditions: for Barnyardgrass plant response rating (0 to 100 scale): 500 g ai/ha, postemergence, 0 is no effect, 100 is complete control; for Barnyardgrass plant response rating: Postemergence, 125 g ai/ha, 0 to 100 scale (0 no effect, 100 complete control)
# Summary of the method: as §1
# [8] = test system: galium (catchweed bedstraw, Galium aparine); assay: Test A postemergence, visual plant response rating; conditions: for Galium plant response rating (0 to 100 scale): 500 g ai/ha, postemergence, 0 is no effect, 100 is complete control; for Galium plant response rating: Postemergence, 125 g ai/ha, 0 to 100 scale (0 no effect, 100 complete control)
# Summary of the method: as §1
# [9] = test system: blackgrass (Alopecurus myosuroides); assay: Test A postemergence, visual plant response rating; conditions: for Blackgrass plant response rating (0 to 100 scale): 500 g ai/ha, postemergence, 0 is no effect, 100 is complete control; for Blackgrass plant response rating: Postemergence, 125 g ai/ha, 0 to 100 scale (0 no effect, 100 complete control)
# Summary of the method: as §1
# [10] = test system: kochia (Kochia scoparia); assay: Test A postemergence, visual plant response rating; conditions: for Kochia plant response rating (0 to 100 scale): 500 g ai/ha, postemergence, 0 is no effect, 100 is complete control; for Kochia plant response rating: Postemergence, 125 g ai/ha, 0 to 100 scale (0 no effect, 100 complete control)
# Summary of the method: as §1
# [11] = test system: foxtail, giant (giant foxtail, Setaria faberii); assay: Test A postemergence, visual plant response rating; conditions: for Foxtail, Giant plant response rating (0 to 100 scale): 500 g ai/ha, postemergence, 0 is no effect, 100 is complete control; for Foxtail, Giant plant response rating: Postemergence, 125 g ai/ha, 0 to 100 scale (0 no effect, 100 complete control)
# Summary of the method: as §1
# [12] = test system: pigweed (Amaranthus retroflexus); assay: Test A postemergence, visual plant response rating; conditions: for Pigweed plant response rating (0 to 100 scale): 500 g ai/ha, postemergence, 0 is no effect, 100 is complete control; for Pigweed plant response rating: Postemergence, 125 g ai/ha, 0 to 100 scale (0 no effect, 100 complete control)
# Summary of the method: as §1
# [13] = test system: corn (Zea mays); assay: Test A postemergence, visual plant response rating; conditions: for Corn plant response rating (0 to 100 scale): 500 g ai/ha, postemergence, 0 is no effect, 100 is complete control; for Corn plant response rating: Postemergence, 125 g ai/ha, 0 to 100 scale (0 no effect, 100 complete control)
# Summary of the method: as §1
# [14] = test system: ragweed (common ragweed, Ambrosia elatior); assay: Test A postemergence, visual plant response rating; conditions: for Ragweed plant response rating (0 to 100 scale): 500 g ai/ha, postemergence, 0 is no effect, 100 is complete control; for Ragweed plant response rating: Postemergence, 125 g ai/ha, 0 to 100 scale (0 no effect, 100 complete control)
# Summary of the method: as §1
# [15] = test system: wheat (Triticum aestivum); assay: Test A postemergence, visual plant response rating; conditions: for Wheat plant response rating (0 to 100 scale): 500 g ai/ha, postemergence, 0 is no effect, 100 is complete control; for Wheat plant response rating: Postemergence, 125 g ai/ha, 0 to 100 scale (0 no effect, 100 complete control)
# Summary of the method: as §1
# [16] = test system: Italian ryegrass (Lolium multiflorum); assay: Test A postemergence, visual plant response rating; conditions: for Ryegrass, Italian plant response rating (0 to 100 scale): 500 g ai/ha, postemergence, 0 is no effect, 100 is complete control; for Ryegrass, Italian plant response rating: Postemergence, 125 g ai/ha, 0 to 100 scale (0 no effect, 100 complete control)
# Summary of the method: as §1
# [17] = test system: barnyardgrass (Echinochloa crus-galli); assay: Test B flooded paddy test, visual plant response rating; conditions: 250 g ai/ha, Flood, applied to paddy water, 2-leaf stage, evaluated after 13 to 15 days
# Summary of the method: (§2)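 Visual scores compare treated plants with controls after 13 to 15 days of greenhouse growth. Treatment was made into paddy water standing 3 cm above the soil, with plants at the 2-leaf stage and flooding maintained throughout.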
# [18] = test system: ducksalad (Heteranhera limosa); assay: as above; conditions: 250 g ai/ha, Flood, applied to paddy water, 2-leaf stage, evaluated after 13 to 15 days
# Summary of the method: as §2
# [19] = test system: sedge, umbrella (small-flower umbrella sedge, Cyperus difformis); assay: as above; conditions: 250 g ai/ha, Flood, applied to paddy water, 2-leaf stage, evaluated after 13 to 15 days
# Summary of the method: as §2
# [20] = test system: rice (Oryza sativa); assay: as above; conditions: 250 g ai/ha, Flood, applied to paddy water, 2-leaf stage, evaluated after 13 to 15 days
# Summary of the method: as §2
Structure (SMILES),Barnyardgrass plant response rating [1],Barnyardgrass plant response rating (0 to 100 scale) [1],Kochia plant response rating [2],Kochia plant response rating (0 to 100 scale) [2],"Foxtail, Giant plant response rating [3]","Foxtail, Giant plant response rating (0 to 100 scale) [3]",Pigweed plant response rating [4],Pigweed plant response rating (0 to 100 scale) [4],Ragweed plant response rating (0 to 100 scale) [5],"Ryegrass, Italian plant response rating [6]","Ryegrass, Italian plant response rating (0 to 100 scale) [6]",Barnyardgrass plant response rating (0 to 100 scale) [7],Barnyardgrass plant response rating [7],Galium plant response rating (0 to 100 scale) [8],Galium plant response rating [8],Blackgrass plant response rating (0 to 100 scale) [9],Blackgrass plant response rating [9],Kochia plant response rating (0 to 100 scale) [10],Kochia plant response rating [10],"Foxtail, Giant plant response rating (0 to 100 scale) [11]",further results
CON=C(c1c(O)c(C)nn(C)c1=O)c1ccc(C)c2ccccc12 [Compound 131],0,60,0,20,60,70,0,0,80,0,0,50,20,80,80,50,30,30,10,50,"Ragweed plant response rating ([5]; 125 g ai/ha, preemergence, 0 to 100 scale, 0 no effect, 100 complete control): 60; Foxtail, Giant plant response rating [11]: 10; Pigweed plant response rating (0 to 100 scale) [12]: 10; Pigweed plant response rating [12]: 0; Corn plant response rating (0 to 100 scale) [13]: 20; Corn plant response rating [13]: 0; Ragweed plant response rating (0 to 100 scale) [14]: 80; Ragweed plant response rating [14]: 80; Wheat plant response rating (0 to 100 scale) [15]: 0; Wheat plant response rating [15]: 0; Ryegrass, Italian plant response rating (0 to 100 scale) [16]: 10; Ryegrass, Italian plant response rating [16]: 0; Plant response rating, Barnyardgrass (0 to 100 scale, 0 is no effect, 100 is complete control) [17]: 0; Plant response rating, Ducksalad (0 to 100 scale, 0 is no effect, 100 is complete control) [18]: 0; Plant response rating, Sedge, Umbrella (0 to 100 scale, 0 is no effect, 100 is complete control) [19]: 0; Plant response rating, Rice (0 to 100 scale, 0 is no effect, 100 is complete control) [20]: 0"
CON=C(c1sccc1C)c1c(O)c(C)nn(C)c1=O [Compound 134],0,10,10,50,0,10,20,60,70,10,30,20,10,60,60,10,0,70,20,20,"Foxtail, Giant plant response rating [11]: 10; Pigweed plant response rating (0 to 100 scale) [12]: 80; Pigweed plant response rating [12]: 40; Corn plant response rating (0 to 100 scale) [13]: 0; Corn plant response rating [13]: 0; Ragweed plant response rating (0 to 100 scale) [14]: 70; Ragweed plant response rating [14]: 60; Wheat plant response rating (0 to 100 scale) [15]: 0; Wheat plant response rating [15]: 0; Ryegrass, Italian plant response rating (0 to 100 scale) [16]: 80; Ryegrass, Italian plant response rating [16]: 20; Plant response rating, Barnyardgrass (0 to 100 scale, 0 is no effect, 100 is complete control) [17]: 0; Plant response rating, Ducksalad (0 to 100 scale, 0 is no effect, 100 is complete control) [18]: 0; Plant response rating, Sedge, Umbrella (0 to 100 scale, 0 is no effect, 100 is complete control) [19]: 0; Plant response rating, Rice (0 to 100 scale, 0 is no effect, 100 is complete control) [20]: 0"
